Test results from ChEMBL document CHEMBL1131974, “Asymmetric synthesis and antitumor activity of cycloalkanin” (1999).

How the values were obtained:
P388 [1] = test: In vitro cytotoxic activity against P388 tumor cell line by MTT assay at 48 hour at a concentration 10E-4 (M/L); format: functional, Mus musculus
P388 [2] = test: In vitro cytotoxic activity against P388 tumor cell line by MTT assay at 48 hour at a concentration 10E-7 (M/L); format: functional, Mus musculus
A549 [3] = test: In vitro cytotoxic activity against A549 tumor cell line by SRB assay at 72 hour at a concentration 10E-7 (M/L); format: functional, Homo sapiens
A549 [4] = test: In vitro cytotoxic activity against A549 tumor cell line by SRB assay at 72 hour at a concentration 10E-4 (M/L); format: functional, Homo sapiens
A549 [5] = test: In vitro cytotoxic activity against A549 tumor cell line by SRB assay at 72 hour at a concentration 10E-8 (M/L); format: functional, Homo sapiens
P388 [6] = test: In vitro cytotoxic activity against P388 tumor cell line by MTT assay at 48 hour at a concentration 10E-8 (M/L); format: functional, Mus musculus
A549 [7] = test: In vitro cytotoxic activity against A549 tumor cell line by SRB assay at 72 hour at a concentration 10E-5 (M/L); format: functional, Homo sapiens
P388 [8] = test: In vitro cytotoxic activity against P388 tumor cell line by MTT assay at 48 hour at a concentration 10E-6 (M/L); format: functional, Mus musculus
P388 [9] = test: In vitro cytotoxic activity against P388 tumor cell line by MTT assay at 48 hour at a concentration 10E-5 (M/L); format: functional, Mus musculus
A549 [10] = test: In vitro cytotoxic activity against A549 tumor cell line by SRB assay at 72 hour at a concentration 10E-6 (M/L); format: functional, Homo sapiens

For `CC1(C)CC[C@H](C2=CC(=O)c3c(O)ccc(O)c3C2=O)O1`, the Inhibition (P388 [1]) was 98.9%, the Inhibition (P388 [2]) was 98.9% and the Inhibition (A549 [3]) was 14%. It also gave an Inhibition (A549 [4]) of 92.5%, an Inhibition (A549 [5]) of 0% and an Inhibition (P388 [6]) of 98.9%. It also gave an Inhibition (A549 [7]) of 93.5%, an Inhibition (P388 [8]) of 98.9% and an Inhibition (P388 [9]) of 98.9%. It also gave an Inhibition (A549 [10]) of 24.7%.
